Measured values taken from patent CN109134566A, “一种1/20水利巴韦林化合物” (Individual, priority 2017, dated 2019).

Legend:
Format in all cases: physicochemical
[1] = Accelerated stability of compressed tablets (试验例3 压片稳定性); conditions: round tablets 0.5 g/tablet, 40℃±2℃, 6 months, sampled at 0, 1, 2, 3, 6 months
[2] = Freeze-drying test, water before and after (试验例2 冷冻干燥试验); conditions: 0.25 g/vial, vacuum, -40℃, 24 h
[3] = Accelerated stability test of the bulk compound (试验例1 稳定性考察); conditions: 40℃±2℃, 6 months, sampled at 0, 1, 2, 3, 6 months

| change in water content of compressed tablets (accelerated test) ([1]; 1/20水) | change in water content after freeze-drying ([2]; 1/20水) | change in water content (accelerated test) ([3]; 1/20水) | change in water content of compressed tablets (accelerated test) [1] | change in water content after freeze-drying [2] | change in water content (accelerated test) [3] | Compound |
| --- | --- | --- | --- | --- | --- | --- |
| 未发生明显变化 | 未发生明显变化 | 未发生明显变化 |  |  |  | NC(=O)c1ncn([C@@H]2O[C@H](CO)[C@@H](O)[C@H]2O)n1 [实施例1, 1/20水利巴韦林化合物] |
|  |  |  | 明显降低 | 明显降低 | 明显降低 | NC(=O)c1ncn([C@@H]2O[C@H](CO)[C@@H](O)[C@H]2O)n1 [对比例1, 利巴韦林] |
